# Assay results published in ChEMBL document CHEMBL3632469, “Discovery of dihydroquinazolinone derivatives as potent, selective, and CNS-penetrant M(1) and M(4) muscarinic acetylcholine receptors agonists” (Bioorg Med Chem Lett, 2015).
# Columns and labels:
# [1] = biological target: Nociceptin receptor (Homo sapiens) (UniProt P41146); assay: Agonist activity at OPRL1 receptor (unknown origin) expressed in CHO cells assessed as calcium mobilization at 3 uM; type: functional, cell-based
# [2] = biological target: 5-hydroxytryptamine receptor 6 (Homo sapiens) (UniProt P50406); assay: Antagonist activity at 5-HT6 receptor (unknown origin) expressed in CHO cells assessed as calcium mobilization at 3 uM; type: functional, cell-based
# Cytochrome P450 2D6 = Cytochrome P450 2D6 (Homo sapiens, UniProt P10635); assay: Inhibition of CYP2D6 (unknown origin); type: ADME
# Chain of Cytochrome P450 2D6 (P10635 whole entry): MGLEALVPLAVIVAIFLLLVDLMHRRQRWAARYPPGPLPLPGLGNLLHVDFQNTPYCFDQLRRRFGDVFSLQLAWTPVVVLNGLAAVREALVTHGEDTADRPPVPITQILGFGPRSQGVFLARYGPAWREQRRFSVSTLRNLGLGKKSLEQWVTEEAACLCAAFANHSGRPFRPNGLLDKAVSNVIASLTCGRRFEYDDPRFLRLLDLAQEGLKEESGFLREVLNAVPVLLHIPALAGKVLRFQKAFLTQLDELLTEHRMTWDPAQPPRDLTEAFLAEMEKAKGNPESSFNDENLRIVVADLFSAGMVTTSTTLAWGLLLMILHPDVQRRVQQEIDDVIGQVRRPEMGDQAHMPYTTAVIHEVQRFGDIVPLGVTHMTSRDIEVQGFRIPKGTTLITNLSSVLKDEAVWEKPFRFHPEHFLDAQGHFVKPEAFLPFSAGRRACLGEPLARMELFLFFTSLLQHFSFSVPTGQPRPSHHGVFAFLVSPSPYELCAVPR
# Cytochrome P450 1A2 = Cytochrome P450 1A2 (Homo sapiens, UniProt P05177); assay: Inhibition of CYP1A2 (unknown origin); type: ADME
# [3] = biological target: Neuropeptide Y receptor type 2 (Homo sapiens) (UniProt P49146); assay: Antagonist activity at NPY2 receptor (unknown origin) expressed in CHO cells assessed as calcium mobilization at 3 uM; type: functional, cell-based
# Chain of Neuropeptide Y receptor type 2 (Homo sapiens) (P49146 whole entry): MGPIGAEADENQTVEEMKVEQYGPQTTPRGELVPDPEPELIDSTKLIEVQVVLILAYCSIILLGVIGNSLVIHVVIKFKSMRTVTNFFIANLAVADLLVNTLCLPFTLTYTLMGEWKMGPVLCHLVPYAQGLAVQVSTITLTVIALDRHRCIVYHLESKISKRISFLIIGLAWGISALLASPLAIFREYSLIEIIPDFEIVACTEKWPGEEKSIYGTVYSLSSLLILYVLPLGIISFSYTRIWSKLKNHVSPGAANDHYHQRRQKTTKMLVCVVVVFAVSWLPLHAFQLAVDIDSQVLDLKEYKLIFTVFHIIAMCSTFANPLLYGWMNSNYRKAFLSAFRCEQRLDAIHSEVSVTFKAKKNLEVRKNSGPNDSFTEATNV
# CHO [4] = assay: Antagonist activity at GaBaB receptor (unknown origin) expressed in CHO cells assessed as calcium mobilization at 3 uM; type: cell-based; conditions: Homo sapiens
# [5] = biological target: T1, Muscarinic acetylcholine receptor M1 (Homo sapiens) (UniProt P11229); assay: Agonist activity at human muscarinic M1 acetylcholine receptor expressed in CHO cells assessed as calcium mobilization by FLIPR assay relative to control; type: functional, cell-based
# T1 sequence (whole entry): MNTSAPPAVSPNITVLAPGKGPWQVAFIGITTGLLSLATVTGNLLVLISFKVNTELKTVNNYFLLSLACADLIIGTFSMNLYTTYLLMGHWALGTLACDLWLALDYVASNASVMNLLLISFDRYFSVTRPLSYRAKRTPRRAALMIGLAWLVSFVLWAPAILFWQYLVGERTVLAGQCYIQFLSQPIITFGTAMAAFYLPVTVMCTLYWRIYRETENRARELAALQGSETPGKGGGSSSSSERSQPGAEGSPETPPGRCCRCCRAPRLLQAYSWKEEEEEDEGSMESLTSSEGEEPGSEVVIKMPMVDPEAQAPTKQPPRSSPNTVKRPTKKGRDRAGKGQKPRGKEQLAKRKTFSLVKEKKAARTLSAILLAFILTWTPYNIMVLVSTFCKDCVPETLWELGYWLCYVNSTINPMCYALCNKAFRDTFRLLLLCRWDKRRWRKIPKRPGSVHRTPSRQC
# [6] = biological target: Alpha-2B adrenergic receptor (Homo sapiens) (UniProt P18089); assay: Agonist activity at adrenergic a2B receptor (unknown origin) expressed in CHO cells assessed as calcium mobilization at 3 uM; type: functional, cell-based
# Chain of Alpha-2B adrenergic receptor (Homo sapiens) (P18089 whole entry): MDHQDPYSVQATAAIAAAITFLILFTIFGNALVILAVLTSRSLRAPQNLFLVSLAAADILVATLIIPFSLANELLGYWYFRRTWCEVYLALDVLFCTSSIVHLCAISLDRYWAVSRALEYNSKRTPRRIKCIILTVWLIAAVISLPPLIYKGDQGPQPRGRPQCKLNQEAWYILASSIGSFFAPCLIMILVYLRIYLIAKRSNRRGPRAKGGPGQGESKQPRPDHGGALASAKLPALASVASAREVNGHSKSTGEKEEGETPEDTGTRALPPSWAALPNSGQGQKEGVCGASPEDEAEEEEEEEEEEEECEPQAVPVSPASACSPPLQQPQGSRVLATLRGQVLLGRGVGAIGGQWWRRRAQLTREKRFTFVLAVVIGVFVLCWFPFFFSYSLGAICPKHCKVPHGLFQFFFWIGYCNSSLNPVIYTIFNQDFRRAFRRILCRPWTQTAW
# [7] = biological target: 5-hydroxytryptamine receptor 1B (Homo sapiens) (UniProt P28222); assay: Antagonist activity at 5-HT1B receptor (unknown origin) expressed in CHO cells assessed as calcium mobilization at 3 uM; type: functional, cell-based
# Chain of 5-hydroxytryptamine receptor 1B (Homo sapiens) (P28222 whole entry): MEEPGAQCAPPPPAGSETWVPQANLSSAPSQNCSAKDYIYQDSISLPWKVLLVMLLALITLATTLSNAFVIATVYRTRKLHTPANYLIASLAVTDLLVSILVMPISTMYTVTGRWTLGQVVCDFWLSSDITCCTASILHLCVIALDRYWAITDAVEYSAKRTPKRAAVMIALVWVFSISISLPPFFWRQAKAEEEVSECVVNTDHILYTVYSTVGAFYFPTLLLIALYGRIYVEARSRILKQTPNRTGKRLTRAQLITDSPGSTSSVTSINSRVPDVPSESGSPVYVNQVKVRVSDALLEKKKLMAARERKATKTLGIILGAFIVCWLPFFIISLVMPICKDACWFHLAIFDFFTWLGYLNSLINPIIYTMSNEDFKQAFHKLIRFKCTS
# [8] = biological target: 5-hydroxytryptamine receptor 1F (Homo sapiens) (UniProt P30939); assay: Antagonist activity at 5-HT1F receptor (unknown origin) expressed in CHO cells assessed as calcium mobilization at 3 uM; type: functional, cell-based
# [9] = biological target: D(2) dopamine receptor (Homo sapiens) (UniProt P14416); assay: Binding affinity to dopamine D2 receptor (unknown origin) at 3 uM by radioligand-binding assay
# Chain of D(2) dopamine receptor (Homo sapiens) (P14416 whole entry): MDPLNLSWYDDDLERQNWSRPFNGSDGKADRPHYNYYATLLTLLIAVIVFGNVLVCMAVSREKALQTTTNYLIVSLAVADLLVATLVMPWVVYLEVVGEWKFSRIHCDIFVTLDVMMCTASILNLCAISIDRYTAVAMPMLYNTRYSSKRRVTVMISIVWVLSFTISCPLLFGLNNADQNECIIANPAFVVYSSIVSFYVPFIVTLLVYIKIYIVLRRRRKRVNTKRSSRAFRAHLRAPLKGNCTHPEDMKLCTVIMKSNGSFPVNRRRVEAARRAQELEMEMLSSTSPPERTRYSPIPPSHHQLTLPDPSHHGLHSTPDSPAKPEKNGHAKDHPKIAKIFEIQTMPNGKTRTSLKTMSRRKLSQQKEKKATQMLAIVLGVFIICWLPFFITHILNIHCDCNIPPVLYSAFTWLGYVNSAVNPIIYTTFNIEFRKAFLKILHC
# [10] = biological target: D(3) dopamine receptor (Homo sapiens) (UniProt P35462); assay: Agonist activity at dopamine D3L receptor (unknown origin) expressed in CHO cells assessed as calcium mobilization at 3 uM; type: functional, cell-based
# [11] = biological target: Alpha-2C adrenergic receptor (Homo sapiens) (UniProt P18825); assay: Agonist activity at adrenergic a2C receptor (unknown origin) expressed in CHO cells assessed as calcium mobilization at 3 uM; type: functional, cell-based
# Chain of Alpha-2C adrenergic receptor (Homo sapiens) (P18825 whole entry): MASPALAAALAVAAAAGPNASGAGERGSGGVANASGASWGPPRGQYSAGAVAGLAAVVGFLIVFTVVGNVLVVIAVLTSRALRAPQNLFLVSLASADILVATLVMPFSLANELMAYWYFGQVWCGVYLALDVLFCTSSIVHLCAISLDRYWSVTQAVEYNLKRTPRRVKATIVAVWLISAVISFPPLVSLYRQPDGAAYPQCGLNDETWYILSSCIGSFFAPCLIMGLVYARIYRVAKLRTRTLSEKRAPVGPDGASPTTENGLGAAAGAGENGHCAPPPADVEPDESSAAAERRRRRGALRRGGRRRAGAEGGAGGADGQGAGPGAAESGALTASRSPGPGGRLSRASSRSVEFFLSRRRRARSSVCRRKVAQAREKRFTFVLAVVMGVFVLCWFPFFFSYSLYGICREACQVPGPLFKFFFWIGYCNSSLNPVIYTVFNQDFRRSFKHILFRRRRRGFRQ
# [12] = biological target: Cysteinyl leukotriene receptor 1 (Homo sapiens) (UniProt Q9Y271); assay: Agonist activity at CysLT1 receptor (unknown origin) expressed in CHO cells assessed as calcium mobilization at 3 uM; type: functional, cell-based
# Chain of Cysteinyl leukotriene receptor 1 (Homo sapiens) (Q9Y271 whole entry): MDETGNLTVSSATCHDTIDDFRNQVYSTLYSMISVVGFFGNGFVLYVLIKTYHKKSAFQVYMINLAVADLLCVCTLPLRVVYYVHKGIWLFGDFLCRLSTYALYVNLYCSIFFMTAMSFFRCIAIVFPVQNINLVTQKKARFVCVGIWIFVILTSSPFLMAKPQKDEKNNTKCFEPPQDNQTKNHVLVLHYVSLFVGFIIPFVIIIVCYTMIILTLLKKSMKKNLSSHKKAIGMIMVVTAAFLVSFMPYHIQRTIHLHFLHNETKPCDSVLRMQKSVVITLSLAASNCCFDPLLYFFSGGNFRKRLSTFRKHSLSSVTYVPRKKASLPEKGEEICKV
# [13] = biological target: Histamine H2 receptor (Homo sapiens) (UniProt P25021); assay: Antagonist activity at histamine H2 receptor (unknown origin) expressed in CHO cells assessed as calcium mobilization at 3 uM; type: functional, cell-based
# Chain of Histamine H2 receptor (Homo sapiens) (P25021 whole entry): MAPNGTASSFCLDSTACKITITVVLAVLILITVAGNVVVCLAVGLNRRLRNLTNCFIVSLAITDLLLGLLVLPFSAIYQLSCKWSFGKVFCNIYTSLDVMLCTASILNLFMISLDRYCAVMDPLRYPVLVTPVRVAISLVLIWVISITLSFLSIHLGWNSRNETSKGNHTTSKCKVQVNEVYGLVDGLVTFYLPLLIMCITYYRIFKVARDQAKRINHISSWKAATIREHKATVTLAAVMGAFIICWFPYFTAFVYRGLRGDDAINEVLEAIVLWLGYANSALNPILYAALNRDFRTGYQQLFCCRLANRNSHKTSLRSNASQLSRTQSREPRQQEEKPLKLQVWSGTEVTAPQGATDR
# [14] = biological target: 5-hydroxytryptamine receptor 4 (Homo sapiens) (UniProt Q13639); assay: Antagonist activity at 5-HT4B receptor (unknown origin) expressed in CHO cells assessed as calcium mobilization at 3 uM; type: functional, cell-based
# Chain of 5-hydroxytryptamine receptor 4 (Homo sapiens) (Q13639 whole entry): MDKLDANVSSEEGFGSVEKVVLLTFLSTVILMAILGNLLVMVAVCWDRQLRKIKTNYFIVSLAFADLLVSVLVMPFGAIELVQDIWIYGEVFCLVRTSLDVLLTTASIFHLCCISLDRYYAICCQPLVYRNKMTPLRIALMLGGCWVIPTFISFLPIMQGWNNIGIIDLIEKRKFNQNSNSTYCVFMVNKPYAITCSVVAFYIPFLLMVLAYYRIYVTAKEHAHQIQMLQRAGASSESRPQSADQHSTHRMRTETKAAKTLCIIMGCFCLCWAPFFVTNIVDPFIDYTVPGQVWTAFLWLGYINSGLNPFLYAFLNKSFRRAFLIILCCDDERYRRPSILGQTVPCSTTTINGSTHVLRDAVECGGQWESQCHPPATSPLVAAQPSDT
# [15] = biological target: Muscarinic acetylcholine receptor M4 (Homo sapiens, UniProt P08173); assay: Partial agonist activity at human muscarinic M4 acetylcholine receptor expressed in CHO cells co-expressing Galpha16 assessed as calcium mobilization by FLIPR assay; type: functional, cell-based
# [16] = biological target: Histamine H1 receptor (Homo sapiens) (UniProt P35367); assay: Binding affinity to histamine H1 receptor (unknown origin) at 3 uM by radioligand-binding assay
# Chain of Histamine H1 receptor (Homo sapiens) (P35367 whole entry): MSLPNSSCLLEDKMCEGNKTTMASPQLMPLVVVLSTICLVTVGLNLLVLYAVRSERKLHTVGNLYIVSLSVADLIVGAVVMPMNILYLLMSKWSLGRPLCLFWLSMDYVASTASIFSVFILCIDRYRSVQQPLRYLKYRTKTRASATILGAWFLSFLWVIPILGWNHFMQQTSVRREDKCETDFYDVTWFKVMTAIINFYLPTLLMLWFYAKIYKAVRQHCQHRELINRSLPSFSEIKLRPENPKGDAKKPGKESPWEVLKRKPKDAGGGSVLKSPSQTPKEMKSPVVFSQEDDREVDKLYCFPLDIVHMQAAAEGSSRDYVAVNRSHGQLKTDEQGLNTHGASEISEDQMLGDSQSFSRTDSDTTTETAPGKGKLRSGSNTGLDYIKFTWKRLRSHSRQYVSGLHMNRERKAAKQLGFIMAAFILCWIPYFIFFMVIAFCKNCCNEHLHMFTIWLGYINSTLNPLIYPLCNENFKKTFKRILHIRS
# [17] = biological target: D(2) dopamine receptor (Homo sapiens) (UniProt P14416); assay: Agonist activity at dopamine D2L receptor (unknown origin) expressed in CHO cells assessed as calcium mobilization at 3 uM; type: functional, cell-based
# P-glycoprotein = assay: Binding affinity to p-glycoprotein (unknown origin) assessed as efflux ratio by cell based assay; type: ADME; conditions: human, not told
# [18] = biological target: Adenosine receptor A1 (Homo sapiens) (UniProt P30542); assay: Antagonist activity at adenosine a1 receptor (unknown origin) expressed in CHO cells assessed as calcium mobilization at 3 uM; type: functional, cell-based
# Chain of Adenosine receptor A1 (Homo sapiens) (P30542 whole entry): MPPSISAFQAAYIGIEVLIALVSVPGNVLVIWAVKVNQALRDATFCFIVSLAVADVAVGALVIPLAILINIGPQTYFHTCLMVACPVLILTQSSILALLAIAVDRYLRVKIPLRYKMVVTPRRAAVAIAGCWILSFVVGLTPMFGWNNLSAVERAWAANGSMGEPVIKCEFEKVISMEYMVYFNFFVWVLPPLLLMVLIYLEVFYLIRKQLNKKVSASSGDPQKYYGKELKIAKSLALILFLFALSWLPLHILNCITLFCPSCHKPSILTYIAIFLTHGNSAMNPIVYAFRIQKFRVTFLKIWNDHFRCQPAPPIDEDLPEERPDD
# [19] = biological target: Adenosine receptor A3 (Homo sapiens) (UniProt P0DMS8); assay: Agonist activity at adenosine a3 receptor (unknown origin) expressed in CHO cells assessed as calcium mobilization at 3 uM; type: functional, cell-based
# [20] = biological target: D(2) dopamine receptor (Homo sapiens) (UniProt P14416); assay: Agonist activity at dopamine D2S receptor (unknown origin) expressed in CHO cells assessed as calcium mobilization at 3 uM; type: functional, cell-based
# [21] = biological target: Nociceptin receptor (Homo sapiens) (UniProt P41146); assay: Antagonist activity at OPRL1 receptor (unknown origin) expressed in CHO cells assessed as calcium mobilization at 3 uM; type: functional, cell-based
# [22] = biological target: Alpha-2A adrenergic receptor (Homo sapiens) (UniProt P08913); assay: Agonist activity at adrenergic a2a receptor (unknown origin) expressed in CHO cells assessed as calcium mobilization at 3 uM; type: functional, cell-based
# [23] = biological target: 5-hydroxytryptamine receptor 1B (Homo sapiens) (UniProt P28222); assay: Agonist activity at 5-HT1B receptor (unknown origin) expressed in CHO cells assessed as calcium mobilization at 3 uM; type: functional, cell-based
# [24] = biological target: 5-hydroxytryptamine receptor 4 (Homo sapiens) (UniProt Q13639); assay: Agonist activity at 5-HT4B receptor (unknown origin) expressed in CHO cells assessed as calcium mobilization at 3 uM; type: functional, cell-based
# [25] = biological target: D(1B) dopamine receptor (Homo sapiens) (UniProt P21918); assay: Antagonist activity at dopamine D5 receptor (unknown origin) expressed in CHO cells assessed as calcium mobilization at 3 uM; type: functional, cell-based
# CHO [26] = assay: Agonist activity at GaBaB receptor (unknown origin) expressed in CHO cells assessed as calcium mobilization at 3 uM; type: cell-based; conditions: Homo sapiens
# [27] = biological target: 5-hydroxytryptamine receptor 2B (Homo sapiens) (UniProt P41595); assay: Agonist activity at 5-HT2B receptor (unknown origin) expressed in CHO cells assessed as calcium mobilization at 3 uM; type: functional, cell-based
# Cytochrome P450 2C19 = Cytochrome P450 2C19 (Homo sapiens, UniProt P33261); assay: Inhibition of CYP2C19 (unknown origin); type: ADME
# [28] = biological target: 5-hydroxytryptamine receptor 5A (Homo sapiens) (UniProt P47898); assay: Agonist activity at 5-HT5a receptor (unknown origin) expressed in CHO cells assessed as calcium mobilization at 3 uM; type: functional, cell-based
# [29] = biological target: Delta-type opioid receptor (Homo sapiens) (UniProt P41143); assay: Antagonist activity at opiate delta1 receptor (unknown origin) expressed in CHO cells assessed as calcium mobilization at 3 uM; type: functional, cell-based
# Chain of Nociceptin receptor (Homo sapiens) (P41146 whole entry): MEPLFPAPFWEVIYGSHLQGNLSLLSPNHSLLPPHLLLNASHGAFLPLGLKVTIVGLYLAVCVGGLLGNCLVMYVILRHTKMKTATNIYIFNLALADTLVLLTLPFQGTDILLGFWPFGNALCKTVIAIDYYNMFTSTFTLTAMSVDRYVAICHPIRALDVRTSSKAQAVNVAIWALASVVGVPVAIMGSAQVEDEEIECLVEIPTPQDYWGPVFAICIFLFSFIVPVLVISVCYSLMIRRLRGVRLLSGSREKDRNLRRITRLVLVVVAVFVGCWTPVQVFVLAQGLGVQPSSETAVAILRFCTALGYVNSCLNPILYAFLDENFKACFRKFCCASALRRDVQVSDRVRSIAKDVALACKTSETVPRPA
smiles,measurement,setting,value
CCOC(=O)N1[C@@H]2CC[C@H]1C[C@H](CN1CC[C@@H](N3Cc4ccccc4NC3=O)C1)C2,Activity,[1],0.23%
same,inhibition,[2],1.97%
same,IC50,Cytochrome P450 2D6,> 2000 nM
same,IC50,Cytochrome P450 1A2,> 2000 nM
same,inhibition,[3],-1.91%
same,inhibition,CHO [4],4.47%
same,Activity,[5],84%
same,Activity,[6],-0.18%
same,inhibition,[7],10.5%
same,inhibition,[8],1.04%
same,inhibition,[9],13%
same,Activity,[10],-2.42%
same,Activity,[11],-0.89%
same,Activity,[12],0.45%
same,inhibition,[13],5.27%
same,inhibition,[14],-1.57%
same,EC50,[15],86 nM
same,inhibition,[16],6%
same,Activity,[17],0.06%
same,efflux ratio,P-glycoprotein,1
same,inhibition,[18],-3.67%
same,Activity,[19],1.07%
same,Activity,[20],-0.5%
same,inhibition,[21],-4.61%
same,Activity,[22],-0.95%
same,Activity,[23],-1.26%
same,Activity,[24],-1.42%
same,inhibition,[25],-3.44%
same,Activity,CHO [26],0.7%
same,Activity,[27],-0.03%
same,IC50,Cytochrome P450 2C19,> 2000 nM
same,Activity,[28],-1.06%
same,inhibition,[29],20.9%
